Where two headings read alike, the source gives them in different places.
System: respiratory epithelial cells

IL-13: human IL-13 (Peprotech, Inc.) added to the medium at 50 ng/mL to stimulate respiratory epithelial cells
PR01489 57777_at expression change (lot 1 Day 3 AI): −2.1 | PSCA (63958_at) expression change (lot 1 Day 3 AI): −9.8 | RAC2 32737_at expression change (lot 1 Day 3 AI): −4.3 | RGC32 (57044_s_at) expression change (lot 1 Day 3 AI): −2.7 | SCYB14 (65823_at) expression change (lot 1 Day 3 AI): −4.1 | SEMA4B (46709_at) expression change (lot 1 Day 3 AI): −2.8 | SERPINA3 (75248_at) expression change (lot 1 Day 3 AI): −4.8 | SLC34A2 (48048_at) expression change (lot 1 Day 3 AI): −2.8 | STEAP 40297_at expression change (lot 1 Day 3 AI): −2.2 | TCF8 33439_at expression change (lot 1 Day 3 AI): −2.5 | TGFBI (68339_at) expression change (lot 1 Day 3 AI): −2.9 | TNRC3 41246_at expression change (lot 1 Day 3 AI): −2.9 | TPM1 36790_at expression change (lot 1 Day 3 AI): −2.9 | TPM1 36791_g_at expression change (lot 1 Day 3 AI): −2.5 | TPM1 36792_at expression change (lot 1 Day 3 AI): −2.6 | UGB 39220_at expression change (lot 1 Day 3 AI): −6 | VIM 34091_s_at expression change (lot 1 Day 3 AI): −3.4 | W72331 49486 at expression change (lot 1 Day 3 AI): −8 | AA045020 (44676_at) expression change (lot 1 Day 3 IMM): −3.4 | AA059445 46293_at expression change (lot 1 Day 3 IMM): −3.9 | AA059458 (65626_at) expression change (lot 1 Day 3 IMM): −4.5 | AA456099 (59567_at) expression change (lot 1 Day 3 IMM): −2 | AI050855 (64285_at) expression change (lot 1 Day 3 IMM): −2.6 | AI468340 (72604_at) expression change (lot 1 Day 3 IMM): −2.2 | AI984780 (52384_s_at) expression change (lot 1 Day 3 IMM): −2.8 | AQP5 32909_at expression change (lot 1 Day 3 IMM): −3.1 | AW025596 52637_g_at expression change (lot 1 Day 3 IMM): −3.1 | COL12A1 (44730_at) expression change (lot 1 Day 3 IMM): −2.9 | DSC3a, b 47119_at expression change (lot 1 Day 3 IMM): −2.6 | HIN-1 (46200_at) expression change (lot 1 Day 3 IMM): −3.1 | IVL 36355_at expression change (lot 1 Day 3 IMM): −8.4 | KIAA1376 (62972_at) expression change (lot 1 Day 3 IMM): −2.5 | KLF7 34216_at expression change (lot 1 Day 3 IMM): −3.3 | KRT6B (62998_at) expression change (lot 1 Day 3 IMM): −3.5 | LCE 45605_at expression change (lot 1 Day 3 IMM): −2.1 | LOC51297 (49616_at) expression change (lot 1 Day 3 IMM): −4 | LOC51297 (55440_at) expression change (lot 1 Day 3 IMM): −10.5 | LOC51297 (55442_g_at) expression change (lot 1 Day 3 IMM): −4.9 | LOC55893 (64071_at) expression change (lot 1 Day 3 IMM): −2 | LOC129642 (42065_at) expression change (lot 1 Day 3 IMM): −2 | MGC12536 46924_at expression change (lot 1 Day 3 IMM): −2.1 | MGC14128 (51669_r_at) expression change (lot 1 Day 3 IMM): −2.2 | MGC14597 (46030_at) expression change (lot 1 Day 3 IMM): −3.1 | MGC16207 (65876_at) expression change (lot 1 Day 3 IMM): −4.5 | N71183 52473_at expression change (lot 1 Day 3 IMM): −2.4 | PR01489 57777_at expression change (lot 1 Day 3 IMM): −3.4 | RAC2 32737_at expression change (lot 1 Day 3 IMM): −3.5 | SLC11A3 (45826_at) expression change (lot 1 Day 3 IMM): −2.3 | STEAP 40297_at expression change (lot 1 Day 3 IMM): −2.3 | TCF8 33439_at expression change (lot 1 Day 3 IMM): −2.7 | TPM1 36791_g_at expression change (lot 1 Day 3 IMM): −2.2 | UCP2 37591_at expression change (lot 1 Day 3 IMM): −2.3 | UGB 39220_at expression change (lot 1 Day 3 IMM): −4 | VIM 34091_s_at expression change (lot 1 Day 3 IMM): −3.2 | W72331 49486 at expression change (lot 1 Day 3 IMM): −3.2 | AA045020 (44676_at) expression change (lot 2, Day 3, AI): −5.7 | AA059445 46293_at expression change (lot 2, Day 3, AI): −4.5 | AA059458 (65626_at) expression change (lot 2, Day 3, AI): −5.8 | AA079839 (69289_at) expression change (lot 2, Day 3, AI): −2 | AA160156 (47578_at) expression change (lot 2, Day 3, AI): −2.3 | AA369887 (87539_i_at) expression change (lot 2, Day 3, AI): −3.4 | AA456099 (59567_at) expression change (lot 2, Day 3, AI): −2.1 | AA772055 46104_at expression change (lot 2, Day 3, AI): −2.7 | AA779895 59136_at expression change (lot 2, Day 3, AI): −3.2 | AF052107 38262_at expression change (lot 2, Day 3, AI): −3.8 | AI050855 (64285_at) expression change (lot 2, Day 3, AI): −2.9 | AI264299 (84903_f_at) expression change (lot 2, Day 3, AI): −10.4 | AI432375 (49819_at) expression change (lot 2, Day 3, AI): −2.6 | AI468340 (72604_at) expression change (lot 2, Day 3, AI): −2.4 | AI669212 55436_at expression change (lot 2, Day 3, AI): −3.7 | AI740855 (83076_at) expression change (lot 2, Day 3, AI): −2.7 | AI760772 (58528_s_at) expression change (lot 2, Day 3, AI): −2 | AI770116 (70124_at) expression change (lot 2, Day 3, AI): −2.6 | AI798733 (64163_at) expression change (lot 2, Day 3, AI): −2.3 | AI829641 (84270_at) expression change (lot 2, Day 3, AI): −24.1 | AI917602 (49985_at) expression change (lot 2, Day 3, AI): −2.4 | AI948584 48086_at expression change (lot 2, Day 3, AI): −15.6 | AI984780 (52384_s_at) expression change (lot 2, Day 3, AI): −5.3 | AQP5 32909_at expression change (lot 2, Day 3, AI): −5.1 | AW022213 (79520_at) expression change (lot 2, Day 3, AI): −2.9 | AW025596 52634_at expression change (lot 2, Day 3, AI): −2 | AW025596 52637_g_at expression change (lot 2, Day 3, AI): −7.5 | B4GALT5 56373_at expression change (lot 2, Day 3, AI): −2.2 | BARX2 35425_at expression change (lot 2, Day 3, AI): −2.5 | BPGM (51261_at) expression change (lot 2, Day 3, AI): −2.5 | CBLB 514_at expression change (lot 2, Day 3, AI): −4.6 | CRABP-II 1057_at expression change (lot 2, Day 3, AI): −4.7 | CRABP-II 41783_at expression change (lot 2, Day 3, AI): −5.4 | DHCR24 (74557_s_at) expression change (lot 2, Day 3, AI): −2.1 | DKFZp434K1210 44682_at expression change (lot 2, Day 3, AI): −2.9 | DREV1 (63813_at) expression change (lot 2, Day 3, AI): −2.1 | DSC3a, b 47119_at expression change (lot 2, Day 3, AI): −2.2 | EIF4EBP1 (54152_at) expression change (lot 2, Day 3, AI): −2.3 | FLJ10298 (62490_f_at) expression change (lot 2, Day 3, AI): −3.4 | FLJ10718 52072_at expression change (lot 2, Day 3, AI): −5.5 | FLJ12541 43546_at expression change (lot 2, Day 3, AI): −3.8 | FLJ20048 (49196_at) expression change (lot 2, Day 3, AI): −2.3 | FLJ20373 54030_at expression change (lot 2, Day 3, AI): −2.4 | FLJ23516 47534_at expression change (lot 2, Day 3, AI): −2.6 | GJA1 32531_at expression change (lot 2, Day 3, AI): −6.8 | GSTA3 58023 at expression change (lot 2, Day 3, AI): −5.3 | HEY1 44783_s_at expression change (lot 2, Day 3, AI): −5.4 | HIN-1 (46200_at) expression change (lot 2, Day 3, AI): −28 | HSPC195 44705_at expression change (lot 2, Day 3, AI): −2 | ID1 36619_r_at expression change (lot 2, Day 3, AI): −2.3 | IVL 36355_at expression change (lot 2, Day 3, AI): −3.6 | K1IAA1102 (64345_s_at) expression change (lot 2, Day 3, AI): −3.2

From patent US20050208496A1, “Methods of testing for bronchial asthma or chronic obstructive pulmonary disease” (Genox Research, Inc., priority 2002, published 2005)
